This passage reports IC50 results from patent publication US12606528B2, “Methods and materials for inhibiting NF-kB activity” (University of Pittsburgh - Of the Commonwealth System of …, priority 2019, dated 2026).

SMILES strings stand for the structures. Like-named read-outs stand apart in the source and are kept apart here. A value given as a limit tells only on which side of the number the result lay.

Test [1] deals with TNF release. The test can be described thus: TNF assay: TNF release from LPS-stimulated human PBMCs (TNF ELISA). The test is classed as cell-based. Particulars: PBMC, read-out: IC50 (TNF assay). The gist of the method:
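TNF ELISA on supernatants read-out; cells were 10k human PBMCs/well given LPS at 10 ng/mL for 18 h after a 2 h compound pre-incubation across a concentration series, with IC50 derived for suppression of TNF secretion.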

Test [2] has as its system NF-κB. The test can be described thus: NF-κB assay: THP1-NF-κB-LUC cells, LPS-stimulated secreted luciferase. Particulars: THP1-NF-κB-LUC cells, read-out: IC50 (NF-κB assay). It is filed as cell-based. The gist of the method: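 THP1-NF-κB-LUC cells (25k/well) were pretreated with compounds for 2 h, then stimulated with LPS (10 ng/mL) for 18 h. Secreted luciferase was measured and normalized to vehicle, and IC50 was fitted from the concentration series.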

The mark [3] stands for this setting: LPS-stimulated human PBMCs, TNF ELISA.
[4] abbreviates: human PBMCs, compounds 2 hours before LPS (10 ng/ml) for 18 hours, supernatant TNF ELISA.
The mark [5] stands for this setting: compounds 2 hours before LPS (10 ng/mL) for 18 hours, secreted luciferase.

With `CNC(=O)N1c2cc(S(=O)(=O)N3CCCC3)ccc2NC(=O)C1C` (stereo not drawn) [BC19236], the concentration for half-maximal inhibition (IC50) in test [1] (setting [3]) and in test [2] (LPS-stimulated) was over 10 µM each time.

Turning to `O=C(NCCN1CCOCC1)c1ccc2nc(-c3ccc(F)cc3)c(-c3ccc(F)cc3)nc2c1` [BC19237], the IC50 (usually the concentration at which inhibition is half-maximal) in test [1] (setting [3]) is over 10 µM; in test [2] (LPS-stimulated), under 0.1 µM.

Take `Fc1ccc(-c2nc3ccc(-c4nnnn4CCN4CCOCC4)cc3nc2-c2ccc(F)cc2)cc1` [BC19238]: the IC50 in test [1] (setting [3]) was over 10 µM; in test [2] (LPS-stimulated), under 0.1 µM.

For `O=C(Nc1ccc2nc(-c3ccc(F)cc3)c(-c3ccc(F)cc3)nc2c1)OCC(F)(F)F` [BC19239], the IC50 in test [1] (setting [3]) is over 10 µM; in test [2] (LPS-stimulated) it was 0.1 to 1 µM.

With `Fc1ccc(-c2nc3ccc(-c4cn(CCN5CCOCC5)nn4)cc3nc2-c2ccc(F)cc2)cc1` [BC19240], the concentration for half-maximal inhibition (IC50) in test [1] (setting [3]) was over 10 µM; in test [2] (LPS-stimulated), under 0.1 µM.

Regarding `Cc1nc(C)c(-c2ccc3nc(-c4ccc(F)cc4)c(-c4ccc(F)cc4)nc3c2)s1` [BC19241], the IC50 in test [1] (setting [3]) was over 10 µM; in test [2] (LPS-stimulated), 1 to 10 µM.

In the case of `Fc1ccc(-c2nc3ccc(-c4cccnc4)cc3nc2-c2ccc(F)cc2)cc1` [BC19242], the results for the half-maximal inhibitory concentration (IC50) in test [1] (setting [3]) and in test [2] (LPS-stimulated) were over 10 µM and 0.1 to 1 µM, respectively.

As to `CS(=O)(=O)c1cncc(-c2ccc3nc(-c4ccc(F)cc4)c(-c4ccc(F)cc4)nc3c2)c1` [BC19243], the half-inhibitory concentration (IC50) in test [1] (setting [3]) is over 10 µM; in test [2] (LPS-stimulated) it was 0.1 to 1 µM.

As to `CN1CCOc2cc(-c3ccc4nc(-c5ccc(F)cc5)c(-c5ccc(F)cc5)nc4c3)ccc21` [BC19244], the IC50 in test [1] (setting [3]) and in test [2] (LPS-stimulated) was over 10 µM throughout.

With `Fc1ccc(-c2nc3ccc(-c4ccncc4)cc3nc2-c2ccc(F)cc2)cc1` [BC19245], the IC50 is over 10 µM in test [1] (setting [3]) and 1 to 10 µM in test [2] (LPS-stimulated).

As for `CCc1nnc(-c2ccc3nc(-c4ccc(F)cc4)c(-c4ccc(F)cc4)nc3c2)o1` [BC19246], the IC50 in test [1] (setting [3]) is over 10 µM; in test [2] (LPS-stimulated), 1 to 10 µM.

In the case of `CCCc1nnc(-c2ccc3nc(-c4ccc(F)cc4)c(-c4ccc(F)cc4)nc3c2)[nH]1` [BC19247], the 50% inhibitory concentration (IC50) in test [1] (setting [3]) was over 10 µM; in test [2] (LPS-stimulated), 1 to 10 µM.

With `CS(=O)(=O)c1ccc(-c2nc3ccc(-c4ncco4)cc3nc2-c2ccc(F)cc2)s1` [BC19248], the concentration for half-maximal inhibition (IC50) in test [1] (setting [3]) and in test [2] (LPS-stimulated) was over 10 µM in each case.

In the case of `Cc1cnc(-c2ccc3nc(-c4ccc(F)cc4)c(-c4cccs4)nc3c2)o1` [BC19249], the IC50 was over 10 µM in test [1] (setting [3]) and 1 to 10 µM in test [2] (LPS-stimulated).

In the case of `Fc1ccc(-c2nc3ccc(-c4nnco4)cc3nc2-c2ccc(F)cc2)cc1` [BC19250], the IC50 is over 10 µM in test [1] (setting [3]) and under 0.1 µM in test [2] (LPS-stimulated).

As to `O=C(Nc1ccc2nc(-c3ccc(F)cc3)c(-c3ccc(F)cc3)nc2c1)C1CCNCC1` [BC19251], the 50% inhibitory concentration (IC50) in test [1] (setting [3]) was 1 to 10 µM; in test [2] (LPS-stimulated), under 0.1 µM.

As to `O=c1c(S(=O)(=O)c2ccc(F)c(F)c2)c[nH]c2c(F)ccc(F)c12` [BC19252], the values for the IC50 in test [1] (setting [4]) and in test [2] (setting [5]) were over 10 µM and under 0.1 µM, respectively.

Take `Cc1ccc(F)c2[nH]cc(S(=O)(=O)c3ccc(F)c(F)c3)c(=O)c12` [BC19253]: the IC50 in test [1] (setting [4]) was over 10 µM; in test [2] (setting [5]), under 0.1 µM.

In the case of `Cc1ccc(Cl)c2c(=O)c(S(=O)(=O)c3ccc(F)c(F)c3)c[nH]c12` [BC19254], the IC50 in test [1] (setting [4]) was over 10 µM; in test [2] (setting [5]), under 0.1 µM.

Consider `COc1ccc(OC)c2c(=O)c(S(=O)(=O)c3ccc(F)c(F)c3)c[nH]c12` [BC19255], for which the values for the IC50 in test [1] (setting [4]) and in test [2] (setting [5]) were over 10 µM and 1 to 10 µM, respectively.

For `O=c1c(S(=O)(=O)c2ccc(F)c(F)c2)c(O)[nH]c2ncccc12` [BC19256], the IC50 was over 10 µM in test [1] (setting [4]) and 1 to 10 µM in test [2] (setting [5]).

For `O=c1c(S(=O)(=O)c2ccc(F)c(F)c2)cnc2ccccn12` [BC19257], the IC50 in test [1] (setting [4]) and in test [2] (setting [5]) was over 10 µM each time.

As to `Cc1ccc(S(=O)(=O)c2c(O)[nH]c3ncccc3c2=O)cc1` [BC19258], the IC50 in test [1] (setting [4]) is over 10 µM; in test [2] (setting [5]), 1 to 10 µM.

Take `O=c1c(S(=O)(=O)c2ccc(Cl)cc2)c(O)[nH]c2ncccc12` [BC19259]: the IC50 in test [1] (setting [4]) is over 10 µM; in test [2] (setting [5]), 1 to 10 µM.
